Experimental data taken from ChEMBL document CHEMBL5120862, “Novel non-covalent LSD1 inhibitors endowed with anticancer effects in leukemia and solid tumor cellular models” (Eur J Med Chem, 2022).
Values belong to the molecule of their own block, whether it stands above or below them. Active and inactive are the calls of the source. The rule behind the calls is not given here.

Experiments:
[1] = molecular target: T1, Histone-lysine N-methyltransferase EHMT2 (Homo sapiens, UniProt Q96KQ7); assay: Inhibition of G9a (unknown origin) assessed as reduction in substrate methylation using histone H3 and SAM as substrate measured after 15 to 60 mins by microfluidic capillary electrophoresis analysis
T1 sequence (Q96KQ7 whole entry): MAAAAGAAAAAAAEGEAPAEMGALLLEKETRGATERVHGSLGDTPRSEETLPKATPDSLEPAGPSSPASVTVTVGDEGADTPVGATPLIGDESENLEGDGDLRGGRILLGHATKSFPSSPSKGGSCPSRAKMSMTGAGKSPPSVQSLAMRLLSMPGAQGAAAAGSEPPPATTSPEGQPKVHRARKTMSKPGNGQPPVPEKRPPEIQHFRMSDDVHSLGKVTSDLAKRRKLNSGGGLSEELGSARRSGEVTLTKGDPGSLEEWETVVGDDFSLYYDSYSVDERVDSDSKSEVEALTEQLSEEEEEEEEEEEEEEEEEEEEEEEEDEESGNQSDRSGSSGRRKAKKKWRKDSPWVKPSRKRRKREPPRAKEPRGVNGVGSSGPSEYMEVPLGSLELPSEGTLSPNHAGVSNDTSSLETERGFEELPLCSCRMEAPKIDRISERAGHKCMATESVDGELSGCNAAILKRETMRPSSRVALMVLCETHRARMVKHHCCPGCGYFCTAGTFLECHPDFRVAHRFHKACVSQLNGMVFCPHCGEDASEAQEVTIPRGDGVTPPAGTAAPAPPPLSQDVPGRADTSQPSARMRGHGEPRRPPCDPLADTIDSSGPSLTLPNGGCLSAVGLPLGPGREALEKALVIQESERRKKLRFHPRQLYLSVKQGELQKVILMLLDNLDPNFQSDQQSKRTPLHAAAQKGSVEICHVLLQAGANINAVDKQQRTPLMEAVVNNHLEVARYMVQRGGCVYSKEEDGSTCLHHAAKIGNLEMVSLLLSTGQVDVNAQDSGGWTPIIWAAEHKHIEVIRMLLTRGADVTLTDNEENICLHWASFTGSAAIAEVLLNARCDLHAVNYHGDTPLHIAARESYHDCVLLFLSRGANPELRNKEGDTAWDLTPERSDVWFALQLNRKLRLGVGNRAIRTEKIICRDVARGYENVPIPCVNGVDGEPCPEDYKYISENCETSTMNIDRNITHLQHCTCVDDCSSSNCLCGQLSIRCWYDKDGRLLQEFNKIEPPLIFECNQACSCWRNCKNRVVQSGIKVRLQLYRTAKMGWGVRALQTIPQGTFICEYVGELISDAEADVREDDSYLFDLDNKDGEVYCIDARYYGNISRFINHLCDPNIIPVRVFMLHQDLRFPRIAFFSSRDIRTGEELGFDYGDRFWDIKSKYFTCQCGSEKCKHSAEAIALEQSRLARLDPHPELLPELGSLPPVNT

[2] = molecular target: T2, LSD1/CoREST complex (Homo sapiens, UniProt O60341); assay: Binding affinity to human LSD1/CoREST assessed as dissociation constant by competitive fluorescence polarization assay; type: protein-complex assay
[3] = system: RD; assay: Antiproliferative activity against human RD cells assessed as reduction in live cells at 2 uM incubated for 72 hrs by calceinAM/propidium iodide staining based fluorescence microscopy; type: functional, cell-based
[4] = system: RD; assay: Antiproliferative activity against human RD cells assessed as inhibition of cell growth incubated for 72 hrs; type: functional, cell-based
[5] = system: MDA-MB-231; assay: Antiproliferative activity against human MDA-MB-231 cells assessed as inhibition of cell growth measured after 72 hrs by MTT assay; type: functional, cell-based; details: MDA-MB-231, 72 h
[6] = system: RD; assay: Antiproliferative activity against human RD cells assessed as inhibition of cell growth incubated for 144 hrs; type: functional, cell-based
[7] = system: SJRH30; assay: Antiproliferative activity against human Rh30 cells assessed as reduction in live cells at 2 uM incubated for 24 hrs by calceinAM/propidium iodide staining based fluorescence microscopy; type: functional, cell-based
[8] = system: SJRH30; assay: Antiproliferative activity against human Rh30 cells assessed as inhibition of cell growth incubated for 24 hrs; type: functional, cell-based; details: SJRH30, 24 h
[9] = system: MV4-11; assay: Induction of cell cycle arrest in human MV4-11 cells assessed as accumulation of cells at G1 phase at 0.2 to […] incubated for 24 hrs; type: functional, cell-based; details: dose 0.2-2.5 µM
[10] = system: SJRH30; assay: Antiproliferative activity against human Rh30 cells assessed as inhibition of cell growth incubated for 72 hrs; type: functional, cell-based; details: SJRH30, 72 h
[11] = system: MV4-11; assay: Antiproliferative activity against human MV4-11 cells assessed as inhibition of cell growth at […] incubated for 72 to 144 hrs by trypan blue staining based analysis; type: functional; details: dose 2.5 µM, time 72-144 hrs
[12] = molecular target: Lysine-specific histone demethylase 1A (Homo sapiens) (UniProt O60341); assay: Inhibition of LSD1 in human MV4-11 cells assessed as increase in H3K4me2 level at 0.2 to […] incubated for 24 hrs by Western blot analysis; type: cell-based; details: dose 0.2-2.5 µM
[13] = molecular target: T2, LSD1/CoREST complex; assay: Inhibition of human LSD1/CoREST using histone H3 peptide as substrate by fluorescence polarization assay; type: protein-complex assay
[14] = system: RD; assay: Induction of apoptosis in human RD cells assessed as increase in caspase 3/7 level at 2 uM incubated for 24 hrs; type: functional, cell-based
[15] = Cytotoxicity against HMEC cells assessed as residual cell viability at 1 uM incubated for 72 hrs by MTT assay relative to control; type: toxicity, cell-based; details: human, read-out: Activity
[16] = Cytotoxicity against human derived mesenchymal stem cells assessed as residual cell viability at 1.25 uM measured after 72 hrs relative to control; type: toxicity, cell-based; details: read-out: Activity
[17] = system: SJRH30; assay: Antiproliferative activity against human Rh30 cells assessed as inhibition of cell growth incubated for 144 hrs; type: functional, cell-based; details: SJRH30, 144 h
[18] = molecular target: Lysine-specific histone demethylase 1A (Homo sapiens) (UniProt O60341); assay: Inhibition of LSD1 in human RD cells assessed as increase in H3K4me2 level at 1 uM incubated for 48 hrs by Western blot analysis; type: cell-based
[19] = system: SJRH30; assay: Induction of apoptosis in human Rh30 cells assessed as increase in caspase 3/7 level at 2 uM incubated for 24 hrs; type: functional, cell-based
[20] = Cytotoxicity against human AHH-1 cells assessed as residual cell viability at 1 uM measured after 72 hrs by MTT assay relative to control; type: toxicity, cell-based; details: read-out: Activity
[21] = molecular target: Lysine-specific histone demethylase 1A (Homo sapiens) (UniProt O60341); assay: Inhibition of LSD1 in human Rh30 cells assessed as increase in H3K4me2 level at 1 uM incubated for 48 hrs by Western blot analysis; type: cell-based
[22] = system: THP-1; assay: Antiproliferative activity against human THP-1 cells assessed as inhibition of cell growth incubated for 144 hrs by CellTiter-Glo luminescent cell viability assay; type: functional, cell-based; details: THP-1, 144 h
[23] = system: THP-1; assay: Antiproliferative activity against human THP-1 cells assessed as inhibition of cell growth incubated for 72 hrs by CellTiter-Glo luminescent cell viability assay; type: functional, cell-based; details: THP-1, 72 h
[24] = system: RD; assay: Antiproliferative activity against human RD cells assessed as inhibition of cell growth incubated for 24 hrs; type: functional, cell-based
[25] = system: MV4-11; assay: Induction of apoptosis in human MV4-11 cells assessed as accumulation of cells at sub-G1 phase incubated for 24 hrs; type: functional, cell-based; details: dose 0.2-25 µM, DDE = dose-dependent effect
[26] = system: THP-1; assay: Antiproliferative activity against human THP-1 cells assessed as inhibition of cell growth incubated for 24 hrs by CellTiter-Glo luminescent cell viability assay; type: functional, cell-based; details: THP-1, 24 h
[27] = molecular target: Histone-lysine N-methyltransferase EZH2 (Homo sapiens) (UniProt Q15910); assay: Inhibition of EZH2 (unknown origin) using [3H]SAM and chicken core histone as substrates at 100 uM incubated for 1 hr relative to control
[28] = molecular target: Histone-lysine N-methyltransferase, H3 lysine-79 specific (Homo sapiens) (UniProt Q8TEK3); assay: Inhibition of […] (unknown origin) using [3H]SAM and HeLa oligo nucleosomes as substrates at 100 uM incubated for 1 hr relative to control
Chain of Histone-lysine N-methyltransferase, H3 lysine-79 specific (Homo sapiens) (Q8TEK3 whole entry, looked up): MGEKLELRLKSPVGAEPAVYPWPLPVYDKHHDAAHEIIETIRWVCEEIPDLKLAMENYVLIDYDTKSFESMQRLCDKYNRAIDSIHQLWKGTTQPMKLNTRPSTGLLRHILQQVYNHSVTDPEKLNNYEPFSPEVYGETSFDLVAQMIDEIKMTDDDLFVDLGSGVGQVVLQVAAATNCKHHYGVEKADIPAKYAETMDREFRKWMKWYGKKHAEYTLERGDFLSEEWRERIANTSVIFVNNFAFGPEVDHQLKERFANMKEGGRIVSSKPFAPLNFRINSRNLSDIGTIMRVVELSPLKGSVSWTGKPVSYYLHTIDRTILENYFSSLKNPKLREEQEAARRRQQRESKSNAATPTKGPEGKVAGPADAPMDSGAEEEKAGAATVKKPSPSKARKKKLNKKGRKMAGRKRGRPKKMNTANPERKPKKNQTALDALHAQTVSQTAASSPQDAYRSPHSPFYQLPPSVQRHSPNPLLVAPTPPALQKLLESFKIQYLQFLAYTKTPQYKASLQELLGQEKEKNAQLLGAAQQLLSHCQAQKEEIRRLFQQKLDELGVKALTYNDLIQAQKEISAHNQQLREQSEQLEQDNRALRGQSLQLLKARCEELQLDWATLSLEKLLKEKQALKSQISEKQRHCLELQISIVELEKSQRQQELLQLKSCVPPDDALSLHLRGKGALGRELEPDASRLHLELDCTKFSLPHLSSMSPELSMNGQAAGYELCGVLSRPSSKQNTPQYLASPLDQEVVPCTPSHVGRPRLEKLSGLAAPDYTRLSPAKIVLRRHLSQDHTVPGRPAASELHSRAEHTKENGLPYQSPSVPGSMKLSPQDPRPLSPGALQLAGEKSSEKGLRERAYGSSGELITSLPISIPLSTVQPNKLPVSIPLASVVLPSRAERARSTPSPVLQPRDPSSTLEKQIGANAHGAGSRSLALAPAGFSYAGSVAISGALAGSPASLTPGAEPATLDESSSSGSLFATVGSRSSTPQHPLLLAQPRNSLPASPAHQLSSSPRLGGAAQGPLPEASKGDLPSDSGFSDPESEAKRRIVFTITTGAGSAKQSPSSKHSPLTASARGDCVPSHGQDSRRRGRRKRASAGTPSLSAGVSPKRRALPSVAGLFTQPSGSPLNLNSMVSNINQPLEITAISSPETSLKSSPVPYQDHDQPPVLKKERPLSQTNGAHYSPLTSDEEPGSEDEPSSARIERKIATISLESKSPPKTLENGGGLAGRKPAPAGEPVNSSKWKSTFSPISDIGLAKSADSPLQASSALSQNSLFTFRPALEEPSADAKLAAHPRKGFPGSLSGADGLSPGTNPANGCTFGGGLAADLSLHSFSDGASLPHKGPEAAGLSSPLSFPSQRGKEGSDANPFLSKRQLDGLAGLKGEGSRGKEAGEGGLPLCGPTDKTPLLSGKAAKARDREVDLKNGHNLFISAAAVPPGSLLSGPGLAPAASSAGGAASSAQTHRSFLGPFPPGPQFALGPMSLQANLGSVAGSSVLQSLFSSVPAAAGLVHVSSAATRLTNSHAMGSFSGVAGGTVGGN

Chain of Histone-lysine N-methyltransferase EZH2 (Homo sapiens) (Q15910 whole entry, looked up): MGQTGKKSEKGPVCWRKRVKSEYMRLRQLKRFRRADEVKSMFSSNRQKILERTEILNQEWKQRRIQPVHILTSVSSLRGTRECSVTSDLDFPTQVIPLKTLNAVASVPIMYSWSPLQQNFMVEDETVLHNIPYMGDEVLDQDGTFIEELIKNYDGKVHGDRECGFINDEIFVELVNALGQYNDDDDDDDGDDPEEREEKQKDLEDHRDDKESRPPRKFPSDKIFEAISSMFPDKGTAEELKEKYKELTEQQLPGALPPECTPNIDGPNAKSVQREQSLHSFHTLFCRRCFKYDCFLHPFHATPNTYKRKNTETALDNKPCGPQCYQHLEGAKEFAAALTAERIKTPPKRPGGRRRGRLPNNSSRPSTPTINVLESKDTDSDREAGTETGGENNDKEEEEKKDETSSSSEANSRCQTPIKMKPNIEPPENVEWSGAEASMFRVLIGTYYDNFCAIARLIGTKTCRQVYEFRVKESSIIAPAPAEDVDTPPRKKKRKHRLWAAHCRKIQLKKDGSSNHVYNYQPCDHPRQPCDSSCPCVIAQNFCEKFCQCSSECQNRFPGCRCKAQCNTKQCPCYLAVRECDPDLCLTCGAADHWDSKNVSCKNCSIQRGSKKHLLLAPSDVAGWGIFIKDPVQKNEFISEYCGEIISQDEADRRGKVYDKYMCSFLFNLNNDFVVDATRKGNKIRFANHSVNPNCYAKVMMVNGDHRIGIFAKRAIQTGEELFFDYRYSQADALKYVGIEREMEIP

SMILES: COc1cc2nc(NCCCN(C)C)nc(NC3CCN(Cc4ccc5ccccc5c4)CC3)c2cc1OC
- Activity [3]: Active
- IC50 [4]: 1230 nM
- IC50 [5]: 210 nM
- IC50 [6]: 900 nM
- Activity [7]: Active
- IC50 [8]: 1210 nM
- Ki [1]: 2930 nM
- Activity [9]: Active
- IC50 [10]: 910 nM
- inhibition [11]: Active
- inhibition [12]: Active
- Ki [13]: 156 nM
- Activity [14]: Active
- viability at 72 h, 1 µM [15]: 96.5%
- viability at 72 h, 1.25 µM [16]: 96%
- IC50 [17]: 690 nM
- inhibition [18]: Active
- Activity [19]: Active
- Kd [2]: 75 nM
- viability at 72 h, 1 µM [20]: 81.5%
- inhibition [21]: Active
- IC50 [22]: 92 nM
- IC50 [23]: 160 nM
- IC50 [24]: 2280 nM
- Activity [25]: Dde
- IC50 [26]: 300 nM

SMILES: COc1cc2nc(NCCCN(C)Cc3ccccc3)nc(NC3CCN(Cc4ccccc4)CC3)c2cc1OC
- Ki [1]: 9010 nM
- Kd [2]: 162 nM

SMILES: Nc1ncnc2c1ncn2[C@@H]1O[C@H](CSCC[C@H](N)C(=O)O)[C@@H](O)[C@H]1O
- inhibition [27]: 84.2%
- inhibition [28]: 100%

SMILES: COc1cc2nc(NC3CCN(C)CC3)nc(NC3CCN(Cc4ccccc4)CC3)c2cc1OC
- Ki [1]: 6330 nM
- Kd [2]: 82 nM

SMILES: COc1cc2nc(NCCCN(C)C)nc(NCCCNc3ccccc3)c2cc1OC
- Ki [1]: 48300 nM
- Kd [2]: 228 nM

SMILES: COc1cc2nc(NCCCN3CCOCC3)nc(NC3CCN(Cc4ccccc4)CC3)c2cc1OC
- Ki [1]: 22600 nM
- Kd [2]: 369 nM

SMILES: COc1cc2nc(NCCCN(C)C)nc(NC3CCN(Cc4cccc5ccccc45)CC3)c2cc1OC
- Ki [1]: 3100 nM
- Ki [13]: 212 nM
- Kd [2]: 84 nM

SMILES: COc1cc2nc(NCCCN3CCN(C)CC3)nc(NC3CCN(Cc4ccccc4)CC3)c2cc1OC
- Ki [1]: 13300 nM
- Kd [2]: 191 nM

Next, values leading:

- Ki [1]: 5260 nM
- Kd [2]: 237 nM
SMILES: COc1cc2nc(NCCN(C)C)nc(NC3CCN(Cc4ccccc4)CC3)c2cc1OC

- Ki [1]: 32900 nM
- Kd [2]: 975 nM
SMILES: COc1cc2nc(NCCCN(C)C)nc(NC3CCN(C(=O)c4ccccc4)CC3)c2cc1OC

- Ki [1]: 4240 nM
- Kd [2]: 112 nM
SMILES: COc1cc2nc(NCCCCN(C)C)nc(NC3CCN(Cc4ccccc4)CC3)c2cc1OC

- Ki [1]: 8030 nM
- Kd [2]: 251 nM
SMILES: COc1cc2nc(NCCCN(C)C)nc(NC3CCN(Cc4ccccc4)C3)c2cc1OC (stereo not drawn)

- Ki [1]: 2790 nM
- Kd [2]: 127 nM
SMILES: COc1cc2nc(NCCCCCN(C)C)nc(NC3CCN(Cc4ccccc4)CC3)c2cc1OC

- Ki [1]: 3130 nM
- Kd [2]: 147 nM
SMILES: COc1cc2nc(NCCCN(C)C)nc(NC3CCN(CCc4ccccc4)CC3)c2cc1OC
